Converted amounts (≈) assume the structure as drawn. Like-named read-outs stand apart in the source and are kept apart here. Starred links: 1 amine or outer side, 2 acyl side, 3 side chain; linkers in the order of their positions; H or OH if unused. Non-standard residues stand in square brackets, D forms with d. Residues, ends and D or L forms follow the SMILES beside them. Groups on a side chain read outwards from the residue. *: point of attachment. C20 diacid = O=C(O)CCCCCCCCCCCCCCCCCCC(=O)*; C18 diacid = O=C(O)CCCCCCCCCCCCCCCCC(=O)*; γGlu = O=C(O)[C@H](CCC(=O)[*:2])N[*:1]; AEEA = NCCOCCOCC(=O)O; Aib = CC(C)(N)C(=O)O
Key:
rat CRF2R α receptor = experiment: cAMP agonism at rat CRF2R α receptor in A7R5 rat aortic smooth muscle cells (Example 8); assay type: cell-based; conditions: cAMP HTRF, A7R5 rat aortic smooth muscle cell line, 0% HSA
Outline: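 Potency (EC50) is the concentration reaching half-maximal activation, with responses scaled so that 1000 nM urocortin 2 equals 100%. Intracellular cAMP was quantified by homogeneous time-resolved fluorescence at 665/620 nm, 1 h after lysis-buffer reagents. Compound stimulation lasted 30 min at room temperature on 2000 IBMX-treated (2 mM) cells per well in HEPES-buffered HBSS.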

[1] = Solubility in buffer systems by UPLC-UV (Example 13); assay type: physicochemical
Outline: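 Quantitation used UV peak area from UPLC of the 1:10-diluted supernatant, set against a reference-compound standard curve with extinction coefficients adjusted for amino acid sequence.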

[2] = Physical stability, dynamic light scattering assay (Example 15); assay type: physicochemical; conditions: for Apparent Rh [nm] 4 weeks / Scattering Intensity (I) [%] 4 weeks: 4 weeks at 40° C.
Outline: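 DLS at 837 nm, 150° angle, +25° C; Rh, scattering intensity and mass contribution measured at 0 weeks and after 4 weeks at 40° C. Rh and D compared at 1, 5 and 10 mg/ml as kD surrogate; separate measurements at 300 μM, purity-corrected.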

[3] = Buffer C (20 mM phosphate, pH 6.2)
[4] = pH 4.5, Solubility in Buffer A [mg/ml]
[5] = pH 4.5, Solubility in Buffer B [mg/ml]
[6] = pH 7.4, Solubility in Buffer C [mg/ml]
[7] = Buffer A (100 mM acetate, pH 4.5)
[8] = Buffer D (20 mM phosphate, pH 7.4)
[9] = Buffer B (100 mM acetate, pH 4.5, 2.7 mg/ml m-cresol)
[10] = Buffer E (20 mM acetate, pH 4.5)

| Structure (SMILES) | EC50 (rat CRF2R α receptor) [nM] | solubility at 1 h [1, 4] [µg/mL] | solubility at 1 h [1, 5] [µg/mL] | solubility at 1 h [1, 6] [µg/mL] | Apparent Rh [nm] 0 weeks [2, 7] [nm] | Scattering Intensity (I) [%] 0 weeks [2, 7] [%] | Apparent Rh [nm] 4 weeks [2, 7] [nm] | Scattering Intensity (I) [%] 4 weeks [2, 7] [%] | Apparent Rh [nm] 0 weeks [2, 8] [nm] | Scattering Intensity (I) [%] 0 weeks [2, 8] [%] | Apparent Rh [nm] 4 weeks [2, 8] [nm] | Scattering Intensity (I) [%] 4 weeks [2, 8] [%] | Apparent Rh [nm] 0 weeks [2, 9] [nm] | Scattering Intensity (I) [%] 0 weeks [2, 9] [%] | Apparent Rh [nm] 4 weeks [2, 9] [nm] | Scattering Intensity (I) [%] 4 weeks [2, 9] [%] | further results |
| --- | --- | --- | --- | --- | --- | --- | --- | --- | --- | --- | --- | --- | --- | --- | --- | --- | --- |
| CC[C@H](C)[C@H](NC(=O)[C@H](CCC(N)=O)NC(=O)[C@H](CCC(=O)O)NC(=O)[C@H](CC(C)C)NC(=O)[C@H](CC(C)C)NC(=O)[C@H](CCC(N)=O)NC(=O)[C@H](CCCCN)NC(=O)[C@H](CC(N)=O)NC(=O)[C@H](CCCCN)NC(=O)[C@H](CCC(=O)O)NC(=O)[C@H](C)NC(=O)[C@H](CCC(N)=O)NC(=O)[C@H](CCC(N)=O)NC(=O)[C@H](CCCNC(=N)N)NC(=O)[C@H](CCC(=O)O)NC(=O)[C@H](CCCCN)NC(=O)[C@H](CCCCN)NC(=O)[C@H](CCC(N)=O)NC(=O)[C@H](CCCCN)NC(=O)[C@H](CCC(N)=O)NC(=O)[C@H](CCC(N)=O)NC(=O)[C@H](CCCCN)NC(=O)[C@H](CC(C)C)NC(=O)[C@H](CC(C)C)NC(=O)[C@@H](NC(=O)[C@H](CCC(N)=O)NC(=O)[C@H](CCCCNC(=O)COCCOCCNC(=O)COCCOCCNC(=O)CC[C@H](NC(=O)CCCCCCCCCCCCCCCCCCC(=O)O)C(=O)O)NC(=O)[C@@H](NC(=O)[C@H](CCCCN)NC(=O)[C@@H](NC(=O)[C@@H]1CCCN1C(=O)[C@@H](NC(=O)[C@H](CC(=O)O)NC(=O)[C@H](CC(C)C)NC(=O)[C@H](CO)NC(=O)[C@H](CC(C)C)NC(=O)[C@@H](NC(=O)[C@@H](N)Cc1ccccc1)[C@@H](C)O)C(C)C)[C@@H](C)O)[C@@H](C)CC)[C@@H](C)CC)C(N)=O [compound 59] (H-FTLSLDVPTKIK([AEEA-AEEA-γGlu-C20 diacid])QILLKQQKQKKERQQAEKNKQLLEQI-NH2) | 0.34 |  |  |  |  |  |  |  |  |  |  |  |  |  |  |  | solubility at 1 h ([1]; Buffer B: 100 mM acetate buffer, pH 4.5, 2.7 mg/ml m-cresol, target 10 mg/ml, read-out: Solubility in Buffer B): > 9400 µg/mL; solubility at 1 h ([1]; Buffer C: 100 mM phosphate buffer, pH 7.4, target 10 mg/ml, read-out: Solubility in Buffer C): > 9100 µg/mL; Apparent Rh [nm] 0 weeks [2, 3]: 3.66 ± 0.05 nm; Scattering Intensity (I) [%] 0 weeks [2, 3]: 100 ± 0%; Apparent Rh [nm] 4 weeks [2, 3]: 3.75 ± 0.08 nm; Scattering Intensity (I) [%] 4 weeks [2, 3]: 100 ± 0% |
| CC[C@H](C)[C@H](N)C(=O)N[C@H](C(=O)N[C@@H](CC(C)C)C(=O)N[C@@H](CO)C(=O)N[C@@H](CC(C)C)C(=O)N[C@@H](CC(=O)O)C(=O)N[C@@H](C(=O)N1CCC[C@H]1C(=O)N[C@H](C(=O)N[C@@H](CCCCN)C(=O)N[C@@H](CC(C)C)C(=O)N[C@@H](CCCCNC(=O)COCCOCCNC(=O)COCCOCCNC(=O)CC[C@H](NC(=O)CCCCCCCCCCCCCCCCC(=O)O)C(=O)O)C(=O)N[C@@H](CCC(N)=O)C(=O)N[C@H](C(=O)N[C@@H](CC(C)C)C(=O)N[C@@H](CC(C)C)C(=O)N[C@@H](CCCCN)C(=O)N[C@@H](CCC(N)=O)C(=O)N[C@@H](CCC(=O)O)C(=O)N[C@@H](CCCNC(=N)N)C(=O)N[C@@H](CCC(N)=O)C(=O)N[C@@H](CCCCN)C(=O)N[C@@H](CCCCN)C(=O)NC(C)(C)C(=O)N[C@@H](CCCNC(=N)N)C(=O)N[C@@H](CCC(N)=O)C(=O)N[C@@H](CCCCN)C(=O)N[C@@H](C)C(=O)N[C@@H](CCC(=O)O)C(=O)N[C@@H](CCCCN)C(=O)N[C@@H](CC(N)=O)C(=O)N[C@@H](CCCCN)C(=O)N[C@@H](CCC(N)=O)C(=O)N[C@H](C(=O)N[C@@H](CC(C)C)C(=O)N[C@@H](C)C(=O)N[C@@H](CCC(N)=O)C(=O)N[C@H](C(N)=O)C(C)C)[C@@H](C)CC)[C@@H](C)CC)[C@@H](C)CC)C(C)C)C(C)C [compound 136] (H-IVLSLD[dV]PIKLK([AEEA-AEEA-γGlu-C18 diacid])QILLKQERQKK[Aib]RQKAEKNKQILAQV-NH2; N-terminus assumed) | 0.38 | > 8400 | > 8600 | 7800 (≈ 1510 µM) | 2.75 ± 0.14 | 98 ± 3 | 2.70 ± 0.28 | 97 ± 2 | 2.40 ± 0.15 | 98 ± 3 | 2.48 ± 0.07 | 98 ± 2 |  |  |  |  |  |
| CC[C@H](C)[C@H](N)C(=O)N[C@H](C(=O)N[C@@H](CC(C)C)C(=O)N[C@@H](CO)C(=O)N[C@@H](CC(C)C)C(=O)N[C@@H](CC(=O)O)C(=O)N[C@@H](C(=O)N1CCC[C@H]1C(=O)N[C@H](C(=O)N[C@@H](CCCCN)C(=O)N[C@@H](CC(C)C)C(=O)N[C@@H](CCCCNC(=O)COCCOCCNC(=O)COCCOCCNC(=O)CC[C@H](NC(=O)CCCCCCCCCCCCCCCCC(=O)O)C(=O)O)C(=O)N[C@@H](CCC(N)=O)C(=O)N[C@H](C(=O)N[C@@H](CC(C)C)C(=O)N[C@@H](CC(C)C)C(=O)N[C@@H](CCCCN)C(=O)N[C@@H](CCC(N)=O)C(=O)N[C@@H](CCC(=O)O)C(=O)N[C@@H](CCCNC(=N)N)C(=O)N[C@@H](CCC(N)=O)C(=O)N[C@@H](CCCCN)C(=O)N[C@@H](CCCCN)C(=O)N[C@@H](CCC(N)=O)C(=O)N[C@@H](CCCNC(=N)N)C(=O)N[C@@H](CCC(=O)O)C(=O)N[C@@H](CCC(N)=O)C(=O)N[C@@H](C)C(=O)N[C@@H](CCC(=O)O)C(=O)N[C@@H](CCCCN)C(=O)N[C@@H](CC(N)=O)C(=O)N[C@@H](CCCCN)C(=O)N[C@@H](CCC(N)=O)C(=O)N[C@H](C(=O)N[C@@H](CC(C)C)C(=O)N[C@@H](CCC(=O)O)C(=O)N[C@@H](CCC(N)=O)C(=O)N[C@H](C(N)=O)C(C)C)[C@@H](C)CC)[C@@H](C)CC)[C@@H](C)CC)C(C)C)C(C)C [compound 137] (H-IVLSLD[dV]PIKLK([AEEA-AEEA-γGlu-C18 diacid])QILLKQERQKKQREQAEKNKQILEQV-NH2; N-terminus assumed) | 0.14 | > 8600 | > 8400 | > 8700 | 3.31 ± 0.15 | 94 ± 1 | 3.34 ± 0.25 | 100 ± 0 | 2.66 ± 0.13 | 84 ± 6 | 2.65 ± 0.11 | 88 ± 9 | 3.50 ± 0.03 | 100 ± 0 | 3.60 ± 0.10 | 100 ± 0 | Apparent Rh [nm] 0 weeks [2, 10]: 2.38 ± 0.13 nm; Scattering Intensity (I) [%] 0 weeks [2, 10]: 98 ± 2%; Apparent Rh [nm] 4 weeks [2, 10]: 2.59 ± 0.07 nm; Scattering Intensity (I) [%] 4 weeks [2, 10]: 100 ± 0% |
| CC[C@H](C)[C@H](N)C(=O)N[C@H](C(=O)N[C@@H](CC(C)C)C(=O)N[C@@H](CO)C(=O)N[C@@H](CC(C)C)C(=O)N[C@@H](CC(=O)O)C(=O)N[C@@H](C(=O)N1CCC[C@H]1C(=O)N[C@H](C(=O)N[C@@H](CCCCN)C(=O)N[C@@H](CC(C)C)C(=O)N[C@@H](CCCCNC(=O)COCCOCCNC(=O)COCCOCCNC(=O)CC[C@H](NC(=O)CCCCCCCCCCCCCCCCC(=O)O)C(=O)O)C(=O)N[C@@H](CCC(N)=O)C(=O)N[C@H](C(=O)N[C@@H](CC(C)C)C(=O)N[C@@H](CC(C)C)C(=O)N[C@@H](CCCCN)C(=O)N[C@@H](CCC(N)=O)C(=O)N[C@@H](CCC(=O)O)C(=O)N[C@@H](CCCNC(=N)N)C(=O)N[C@@H](CCC(N)=O)C(=O)N[C@@H](CCCCN)C(=O)N[C@@H](CCCCN)C(=O)N[C@@H](CCC(N)=O)C(=O)N[C@@H](CCCNC(=N)N)C(=O)N[C@@H](CCC(N)=O)C(=O)N[C@@H](CCC(N)=O)C(=O)N[C@@H](C)C(=O)N[C@@H](CCC(=O)O)C(=O)N[C@@H](CCCCN)C(=O)N[C@@H](CC(N)=O)C(=O)N[C@@H](CCCCN)C(=O)N[C@@H](CCC(N)=O)C(=O)N[C@H](C(=O)N[C@@H](CC(C)C)C(=O)N[C@@H](C)C(=O)N[C@@H](CCC(N)=O)C(=O)N[C@H](C(N)=O)C(C)C)[C@@H](C)CC)[C@@H](C)CC)[C@@H](C)CC)C(C)C)C(C)C [compound 139] (H-IVLSLD[dV]PIKLK([AEEA-AEEA-γGlu-C18 diacid])QILLKQERQKKQRQQAEKNKQILAQV-NH2; N-terminus assumed) | 0.1 | > 9100 | > 8600 | > 8800 | 3.04 ± 0.08 | 98 ± 1 | 3.13 ± 0.22 | 95 ± 4 | 2.38 ± 0.23 | 96 ± 3 | 2.56 ± 0.29 | 100 ± 0 | 2.94 ± 0.32 | 96 ± 5 | 3.11 ± 0.14 | 93 ± 3 |  |

Reference: US12679878B2, “CRF2 receptor agonists and their use in therapy” (SANOFI, priority 2020, dated 2026)
